Consider five compounds from publication PMC9964718, “Diterpenoids from Euphorbia gedrosiaca as Potential Anti-Proliferative Agents against Breast Cancer Cells” (Metabolites, 2023).

The structures appear in SMILES notation.

In data set [1] the test system is MCF-7 (ATCCR HTB-22) breast cancer cells. Description: MTT viability assay, MCF-7 breast cancer cells. The conditions noted are these: for IC50: Homo sapiens, MCF7, MCF-7, MTT, 24 h incubation, mean ± SD (n = 3), read-out: Cytotoxic activity IC50; for Potency in MTT assay: MCF-7, 100 μM concentration, P values less than 0.0001. Type of data set: cell-based. The protocol:
(§1) MDA MB-231 and MCF-7 (ATCCR HTB-26 and ATCCR HTB-22) breast cancer cells, originated from Pasteur Institute (IPI, Tehran, I.R. Iran), were cultured in RPMI1640 with streptomycin, penicillin, and fetal bovine serum (FBS) (100 µg/mL, 100 units/mL, 10%) with criteria of 5% carbon dioxide, 37 °C, and 95% humidity for a few days. Mouse normal fibroblast cell line (NCTC clone 929 from the same institute) was cultured in DMEM+10% FBS+ 1% penicillin/streptomycin in the same conditions. After incubation, cells were seeded at 7 × 10^3 cells in each well of ninety-six well plates for 12 h. Then, the media were changed, and sample compounds in concentrations of 1, 10, and 100 µM were added. For L929 normal cell line, samples were added in the concentrations of 1, 10, 100, 250, and 500 µM. Placebo with the same amount of DMSO in each concentration used for compounds and Taxol in concentrations of 0.001, 0.01, 0.1, 1, and 10 µM were added as the negative and positive controls. After 24 h incubation time, the reduction agent (MTT, 5 mg/mL, 20 µL) was added to each well and incubated for 4 h to let the MTT be reduced into formazan derivative by the mitochondria of survived cells. The media was then changed with DMSO (200 µL) to solubilize the insoluble formazan crystals, and the absorbance was read by a Synergy ELISA reader (BioTek Instruments, Winooski, VT, USA) at 570 nm.
(In general: Tetrazolium dyes change colour on reduction, which living cells bring about.)

For data set [2], the system named is MDA-MB-231 (ATCCR HTB-26) breast cancer cells. In words: MTT viability assay, MDA-MB-231 breast cancer cells. It counts as cell-based. Conditions: for IC50: Homo sapiens, MDA-MB-231, MTT, 24 h incubation, mean ± SD (n = 3), read-out: Cytotoxic activity IC50; for Cytotoxicity against MDA-MB-231 compared to MCF-7: comparison of MTT test results, MDA-MB-231 vs MCF-7. The protocol: as §1

Data set [3] in a line: MTT viability assay, L929 normal fibroblast cell line. It counts as cell-based. The conditions noted are these: L929 normal fibroblast cells (NCTC clone 929), L929 (normal) mouse fibroblast, 24 h incubation, mean ± SD (n = 3), read-out: Cytotoxic activity IC50. The method, then: as §1
Data set [4] concerns human colon (Caco-2) tumor cells. Also on record: method as in PMID 30200407. Conditions: cited from earlier work.
Data set [5] has as its system human lung (A549) tumor cells. More on the design: method as in PMID 30200407. Conditions: cited from earlier work.
Details of data set [6]: method as in PMID 30707022. The conditions noted are these: compound isolated from roots of Euphorbia prolifera; cited from earlier work.

For the compound `CCC(=O)O[C@@H]1[C@@H]2[C@@H](OC(=O)C(C)C)[C@@]3(COC(=O)c4cccnc4)[C@@H]([C@@H]4[C@H](C[C@H]3OC(C)=O)C4(C)C)[C@](C)(OC(C)=O)C(=O)[C@@]2(O)C[C@@H]1C` [Compound 4, 3β-O-propanoyl-5α-O-isobutanoyl-7α,13β-O-diacetyl-17α-O-nicotinoyl-14-oxopremyrsinane], the figures for the IC50 in data set [1] and in data set [2] were 74.4 ± 5.2 µM and 27.3 ± 3.2 µM, respectively. Besides, the “Cytotoxicity against MDA-MB-231 compared to MCF-7” value in data set [2] was “almost three times higher cytotoxicity”. The IC50 (usually the concentration that inhibits the measured activity by half) at 24 h in data set [3] worked out at 716 ± 26.9 µM. For the same compound, the “Cytotoxicity against proliferation” value in data set [4] and in data set [5] was “moderate cytotoxicity” throughout.
As to `CCC(=O)O[C@@H]1[C@@H]2[C@@H](OC(=O)C(C)CC)[C@@]3(COC(=O)c4cccnc4)[C@@H]([C@@H]4[C@H](C[C@H]3OC(C)=O)C4(C)C)[C@](C)(OC(C)=O)C(=O)[C@@]2(O)C[C@@H]1C` (stereo partly drawn) [Compound 1, 3β-O-propanoyl-5α-O-methylbutanoyl-7α,13β-O-diacetyl-17α-O-nicotinoyl-14-oxopremyrsinane], the IC50 was 22.2 ± 2.4 µM in data set [1] and 10.8 ± 2.1 µM in data set [2]. The “Potency in MTT assay” value in data set [1] is recorded as “reasonably potent”. The half-inhibitory concentration (IC50) at 24 h in data set [3] amounted to 528 ± 23.8 µM. Besides, the “Cytotoxicity against proliferation” value in data set [4] and in data set [5] was “moderate cytotoxicity” throughout.
Take `CCC(=O)O[C@@H]1[C@@H]2[C@@H](OC(=O)c3ccccc3)[C@@]3(COC(C)=O)[C@@H]([C@@H]4[C@H](C[C@H]3OC(C)=O)C4(C)C)[C@](C)(OC(C)=O)C(=O)[C@@]2(O)C[C@@H]1C` [Compound 2, 3β-O-propanoyl-5α-O-benzoyl-7α,13β, 17α -O-triacetyl-14-oxopremyrsinane]: in data set [1], the concentration for half-maximal inhibition (IC50) was determined as 27.8 ± 2.5 µM and the “Potency in MTT assay” value is on record as “reasonably potent”. Also, the concentration for half-maximal inhibition (IC50) in data set [2] was found to be 22.2 ± 4 µM. In addition, in data set [3], the half-maximal inhibitory concentration (IC50) at 24 h turned out to be 553 ± 26.7 µM. Moreover, in data set [6], the “Lipid-lowering activities and TG inhibitory effects” value was “acceptable”.
`CCC(=O)OC1C2C(OC(C)=O)C34COC(C)(C(OC(=O)c5ccccc5)C2(OC(C)=O)CC1(C)OC(C)=O)C3C(C(C)(C)OC(C)=O)C=CC4OC(C)=O` (centres unmarked) [Compound 5, 2,5,7,10,15-O-pentaacetyl-3-O-propanoyl-14-O-benzoyl-13,17-epoxy-8-myrsinene]: the IC50 was 126 ± 4.2 µM in data set [1] and 33.7 ± 4.6 µM in data set [2]. The 50% inhibitory concentration (IC50) at 24 h in data set [3] was determined as 596 ± 23.5 µM.
In the case of `CCC(=O)O[C@@H]1[C@@H]2[C@@H](OC(=O)C(C)C)[C@@]3(COC(C)=O)[C@@H]([C@@H]4[C@H](C[C@H]3OC(C)=O)C4(C)C)[C@](C)(OC(C)=O)C(=O)[C@@]2(O)C[C@@H]1C` [Compound 3, 3β-O-propanoyl-5α-O-isobutanoyl-7α,13β, 17α -O-triacetyl-14-oxopremyrsinane], the 50% inhibitory concentration (IC50) in data set [1] is 62.6 ± 4.9 µM; in data set [2], 24.5 ± 3.8 µM. Further, in data set [2], the “Cytotoxicity against MDA-MB-231 compared to MCF-7” value is “almost three times higher cytotoxicity”. Besides, the IC50 at 24 h in data set [3] stood at 433 ± 22.1 µM. Further, the “Cytotoxicity against proliferation” value in data set [4] and in data set [5] was “moderate cytotoxicity” each time.
